# Experimental data published in patent US12252708B2, “Living mammalian cells modified with functional modular nanoparticles” (UNM Rainforest Innovations, priority 2018, dated 2025).
# System: HeLa cells
# Experiment: Cytoprotection test to DOX
# Format: cell-based
# Conditions: native HeLa cells and SupraCell-MIL-100(Fe); nearly identical dose response curve; 2 hours
# Experimental: Then, the anticancer drug doxorubicin (diameter about 1.6 nm) or cytotoxic silver (Ag) nanocrystals (diameter about 5.0 nm) were added into the culture medium at different concentrations.
# Cytoprotection test to DOX. The cytoprotection test was performed on Supracell-MIL-100 (Fe). Briefly, the native HeLa cells and Supracell-MIL-100 (Fe) were seeded on 96-well plate at the density of 200,000 cells/mL. Then different concentration of DOX (0.01, 0.1, 1.0, 10, 20, and 50 μg/ML) was added in the cell culture media under cell culture condition. After incubation for 2 hours, the viability of the cells or SupraCells was measured by CellTiter-Glo® 2.0 Assay.
smiles,measurement,value
COc1cccc2c1C(=O)c1c(O)c3c(c(O)c1C2=O)C[C@@](O)(C(=O)CO)C[C@@H]3O[C@H]1C[C@H](N)[C@H](O)[C@H](C)O1 [doxorubicin],sensitivity of cells to the drug (viability),sensitive
